This is an account of results in PMC12529880, “Structural mechanisms for cold‐adapted activity of phosphoenolpyruvate carboxykinase” (Protein Science : A Publication of the Protein Society, 2025).

Common to all, as to format: binding
The target of one experiment is T1, rcPEPCK (Rattus norvegicus, UniProt P07379).
T1 construct: gene Pck1; full length, 622 residues, SUMO tag removed by SUMO protease; E. coli BL21(DE3)
T1 sequence (P07379 1-622): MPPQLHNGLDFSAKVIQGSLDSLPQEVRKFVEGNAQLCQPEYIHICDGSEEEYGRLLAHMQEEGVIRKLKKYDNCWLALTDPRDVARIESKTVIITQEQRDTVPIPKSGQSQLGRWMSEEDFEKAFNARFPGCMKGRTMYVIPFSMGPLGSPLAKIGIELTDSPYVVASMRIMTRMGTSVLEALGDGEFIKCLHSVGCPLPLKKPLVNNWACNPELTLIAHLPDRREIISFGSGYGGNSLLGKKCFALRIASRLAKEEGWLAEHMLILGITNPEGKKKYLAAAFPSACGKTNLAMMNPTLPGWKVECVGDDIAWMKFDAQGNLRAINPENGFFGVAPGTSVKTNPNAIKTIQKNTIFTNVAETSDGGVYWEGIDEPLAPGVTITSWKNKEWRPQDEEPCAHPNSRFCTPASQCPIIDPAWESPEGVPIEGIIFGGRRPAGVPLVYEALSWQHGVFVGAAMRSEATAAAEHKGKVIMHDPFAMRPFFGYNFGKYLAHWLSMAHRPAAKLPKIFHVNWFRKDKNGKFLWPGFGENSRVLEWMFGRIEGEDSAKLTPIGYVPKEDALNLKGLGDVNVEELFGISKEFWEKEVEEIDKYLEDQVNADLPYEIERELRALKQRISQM
Kind of experiment: differential scanning fluorimetry (SYPRO Orange). The conditions noted are these: reference is the Mn-only enzyme, 21.4 μM enzyme, 1 mM MnCl2, 25 mM HEPES pH 7.4. The text has this:
differential scanning fluorimetry (SYPRO Orange) on rcPEPCK

For experiment [1], the target named is T2, PnPEPCK (Polaromonas naphthalenivorans, UniProt A1VIE9).
T2 construct: gene pckG; full length, 622 residues, N-terminal His6-SUMO tag cleaved off with no additional amino acids; codon-optimised gene in pESUMO-Star; E. coli BL21(DE3); EC 4.1.1.32
In words: X-ray crystal structure.

In experiment [2] the target is T2, PnPEPCK. Kind of experiment: differential scanning fluorimetry (SYPRO Orange). The conditions noted are these: reference is the Mn-only enzyme, 21.4 μM enzyme, 1 mM MnCl2, 25 mM HEPES pH 7.4. The text has this:
differential scanning fluorimetry (SYPRO Orange) on PnPEPCK
Background: In DSF a fluorescence change marks the thermal transition of the protein.

The mark [3] stands for this setting: absolute TM of Mn-GTP complex, 214 μM GTP.
Setting [4] is: absolute TM of Mn-oxalate complex, 214 μM oxalate.

T2 sequence (A1VIE9 entry or part of it): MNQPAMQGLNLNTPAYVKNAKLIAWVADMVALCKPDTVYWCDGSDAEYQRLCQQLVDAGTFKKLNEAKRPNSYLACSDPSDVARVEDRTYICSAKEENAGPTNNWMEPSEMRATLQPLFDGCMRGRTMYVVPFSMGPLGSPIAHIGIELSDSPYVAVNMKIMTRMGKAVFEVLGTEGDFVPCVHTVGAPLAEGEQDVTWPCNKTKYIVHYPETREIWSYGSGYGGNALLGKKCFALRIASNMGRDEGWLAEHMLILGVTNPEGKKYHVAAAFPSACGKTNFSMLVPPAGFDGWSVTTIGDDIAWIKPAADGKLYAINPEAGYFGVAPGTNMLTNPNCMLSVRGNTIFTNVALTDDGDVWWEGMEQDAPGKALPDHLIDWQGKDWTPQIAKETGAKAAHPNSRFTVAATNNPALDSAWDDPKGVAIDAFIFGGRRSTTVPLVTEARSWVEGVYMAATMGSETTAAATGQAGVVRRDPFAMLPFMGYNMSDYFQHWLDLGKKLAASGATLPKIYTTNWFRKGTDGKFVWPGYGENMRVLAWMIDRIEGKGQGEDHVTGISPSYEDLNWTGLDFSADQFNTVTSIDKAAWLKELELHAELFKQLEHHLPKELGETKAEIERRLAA

Consider `Nc1nc2c(ncn2[C@@H]2O[C@H](COP(=O)(O)OP(=O)(O)OP(=O)(O)O)[C@@H](O)[C@H]2O)c(=O)[nH]1` [GTP], for which, at rcPEPCK (setting [3]), the “rcPEPCK / T M (°C)” value was 61.4 °C. Moreover, at PnPEPCK [1] (ternary complexes with βSP or oxalate, closed), the X-ray crystal structure result is “All three ternary complexes (βSP‐GTP, oxalate‐GTP, and PGA‐GDP)”. For the same compound, the “PnPEPCK / T M (°C)” value on PnPEPCK [2] (setting [3]) came to 59.5 °C. With `O=C(O)C(=O)O` [oxalate], at rcPEPCK (setting [4]), the “rcPEPCK / T M (°C)” value is 54.4 °C. The X-ray crystal structure result on PnPEPCK [1] (enol-pyruvate mimic, ternary complex with GTP, closed) is “All three ternary complexes (βSP‐GTP, oxalate‐GTP, and PGA‐GDP)”. The “PnPEPCK / T M (°C)” value on PnPEPCK [2] (setting [4]) amounted to 46.3 °C. With `C=C(OP(=O)(O)O)C(=O)O` [PEP], the X-ray crystal structure entry on PnPEPCK [1] (binary Mn2+ complex, open, P2_12_12_1 and C222_1 crystals) is listed as “both with PEP bound at the active site”. Consider `O=C(O)COP(=O)(O)O` [PGA], for which the X-ray crystal structure entry at PnPEPCK [1] (PEP analogue, ternary complex with GDP, closed) was “All three ternary complexes (βSP‐GTP, oxalate‐GTP, and PGA‐GDP)”. On to `Nc1nc2c(ncn2[C@@H]2O[C@H](COP(=O)(O)OP(=O)(O)O)[C@@H](O)[C@H]2O)c(=O)[nH]1` [GDP], for which, at PnPEPCK [1] (ternary complex with PGA, closed), the X-ray crystal structure result was “All three ternary complexes (βSP‐GTP, oxalate‐GTP, and PGA‐GDP)”. Regarding `O=C(O)C(=O)CS(=O)(=O)O` [βSP], the X-ray crystal structure result on PnPEPCK [1] (OAA analogue, binary Mn2+ complex and ternary complex with GTP, closed) was “All three ternary complexes (βSP‐GTP, oxalate‐GTP, and PGA‐GDP) in addition to βSP alone”.
